Values of other authors in patent US20110082200A1, “5,6,7-TRIHYDROXYHEPTANOIC ACID AND ANALOGS FOR THE TREATMENT OF OCULAR DISEASES AND DISEASES ASSOCIATED WITH HYPERPROLIFERATIVE AND ANGIOGENIC RESPONSES” (ALCON, INC., priority 2004, published 2011).

Key:
neutrophils = conditions: compared with lipoxin A4
[1] = tested on: VEGF-induced angiogenesis; conditions: murine chronic granulomatous air pouch model
endothelial cell [2] = conditions: in vitro
endothelial cell [3] = conditions: in vitro; remark: listed apart in the source

COC(=O)CCC[C@H](O)[C@H](O)CO [Compound 1]
inhibition of LTB4-induced chemotaxis of neutrophils (neutrophils): as potently as lipoxin A4

CCCCC[C@H](O)[C@H](O)CO [Compound 2]
inhibition of LTB4-induced chemotaxis of neutrophils (neutrophils): as potently as lipoxin A4

O=C(O)CCC[C@H](O)[C@H](O)/C=C/C=C/C=C\C=C\[C@H](O)COc1ccc(F)cc1 [Lipoxin analog 3]
inhibition of VEGF-induced angiogenesis [1]: inhibit | inhibition of VEGF-induced endothelial cell chemotaxis and proliferation (endothelial cell [2]): inhibit | inhibition of leukotriene D4-induced endothelial cell chemotaxis and proliferation (endothelial cell [3]): inhibit
